Reference: patent publication US9328138B2 (priority 2011, dated 2016)

Assays:
[1] = target: T1, HCV genotype 1b (BK) NS3 modified enzyme with a R155K mutation (Hepatitis C virus genotype 1b, UniProt P26663, R1181K); experiment: HCV NS3 protease time-resolved fluorescence (TRF) assay, genotype 1b R155K; assay type: biochemical; conditions: Ki 1b R155K
T1 construct: HCV genotype 1b (BK) NS3 modified enzyme
How it was run: (§1)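 Inhibitor titrations are mixed with NS3/NS4A in pH 7.5 HEPES buffer containing 10 mM DTT and 15% glycerol for 10 min before substrate (25 nM final) is added. After 6 h at room temperature, delayed fluorescence is read and fitted to a four-parameter curve for IC50.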

[2] = target: HCV NS3 protease genotype 3a (3A-1) (Hepatitis C virus genotype 3a, UniProt Q81258); experiment: HCV NS3 protease time-resolved fluorescence (TRF) assay, genotype 3a; assay type: biochemical; conditions: Ki 3a
How it was run: as §1

[3] = genotype 1b (BK) NS3 R155K, single value

| Structure (SMILES) | Ki [1, 3] [nM] | Ki [2] [nM] | Ki ([1]; first of two values printed in the cell (not explained)) [nM] | Ki ([1]; second of two values printed in the cell (not explained)) [nM] |
| --- | --- | --- | --- | --- |
| C=C[C@@H]1C[C@]1(NC(=O)[C@@H]1C[C@@H]2CN1C(=O)[C@H](C(C)(C)C)NC(=O)O[C@@H]1C[C@H]1CCCCCc1c(nc3ccccc3c1OCCCN1CC3CCC1C3)O2)C(=O)NS(=O)(=O)C1(C)CC1 [Example 196, (1aR,5S,8S,10R,22aR)-17-[3-(2-azabicyclo[2.2.1]hept-2-yl)propxy]-5-tert-butyl-N-[(1R,2S)-2-ethenyl-1-{[(1-methylcyclopropyl)sulfonyl]carbamoyl}cyclopropyl]-3,6-dioxo-1,1a, 3,4,5,7,9,10,18,19,20,21,22,22a-tetradecahydro-8H-7,10-methanocyclopropa[18,19][1,10,3,6] dioxadiazacyclononadecino[11,12-b] quinoline-8-carboxamide] | 0.1 | 0.85 |  |  |
| C=C[C@@H]1C[C@]1(NC(=O)[C@@H]1C[C@@H]2CN1C(=O)[C@H](C(C)(C)C)NC(=O)O[C@@H]1C[C@H]1CCCCCc1c(nc3ccccc3c1OCCc1ccncc1)O2)C(=O)NS(=O)(=O)C1(C)CC1 [Example 219, (1aR,5S,8S,10R,22aR)-5-tert-butyl-N-[(1R,2S)-2-ethenyl-1-{[(1-methylcyclopropyl)sulfonyl]carbamoyl}cyclopropyl]-3,6-dioxo-17-[2-(pyridine-4-yl)ethoxy]-1,1a,3,4,5,6,9,10,18,19,20,21,22,22a-tetradecahydro-8H-7,10-methanocyclopropa[18,19][1,10,3,6] dioxadiazacyclononadecino[11,12-b]quinoline-8-carboxamide] | 0.12 | 1.9 |  |  |
| C=C[C@@H]1C[C@]1(NC(=O)[C@@H]1C[C@@H]2CN1C(=O)[C@H](C(C)(C)C)NC(=O)O[C@@H]1C[C@H]1CCCCCc1c(nc3ccccc3c1OCCNC1CC1)O2)C(=O)NS(=O)(=O)C1(C)CC1 [Example 178, (1aR,5S,8S,10R,22aR)-5-tert-butyl-17-[2-(cyclopropylamino)ethoxy]-N-[(1R,2S)-2-ethenyl-1-{[(1-methylcyclopropyl)sulfonyl]carbamoyl}cyclopropyl]-3,6-dioxo-1,1a,3,4,5,6,9,10, 18,19,20,21,22,22a-tetradeca hydro-8H-7,10-methanocyclopropa[18,19][1,10,3,6] dioxadiazacyclononadecino[11,12-b] quinoline-8-carboxamide] | 0.14 | 3.6 |  |  |
| C=CC1C[C@]1(NC(=O)[C@@H]1C[C@@H]2CN1C(=O)[C@H](C(C)(C)C)NC(=O)O[C@@H]1CCC[C@H]1CCCCCc1c(nc3ccccc3c1OCCN1CCOCC1)O2)C(=O)NS(=O)(=O)C1(C(=C)C)CC1 (some centres unmarked) [Example 62] | 1.6 | 85 |  |  |
| C=C[C@@H]1C[C@]1(NC(=O)[C@@H]1C[C@@H]2CN1C(=O)[C@H](C(C)(C)C)NC(=O)O[C@@H]1C[C@H]1CCCCCc1c(nc3ccccc3c1OCCCN1CC(OC)C1)O2)C(=O)NS(=O)(=O)C1(C)CC1 [Example 157, (1aR,5S,8S,10R,22aR)-5-tert-butyl-N-[(1R,2S)-2-ethenyl-1-{[(1-methylcyclopropyl)sulfonyl]carbamoyl}cyclopropyl]-17-[3-(3-methoxyazetidin-1-yl)propoxy]-3,6-dioxo-1,1a,3,4,5,6,9,10, 18,19,20,21,22,22a-tetradecahydro-8H-7,10-methanocyclopropa[18,19] [1,10,3,6]dioxadiazacyclononadecino [11,12-b]quinoline-8-carboxamide] | 0.049 | 0.76 |  |  |
| C=C[C@@H]1CC1(NC(=O)[C@@H]1C[C@@H]2CN1C(=O)[C@H](C(C)(C)C)NC(=O)O[C@@H]1C[C@H]1CCCCCc1c(nc3ccccc3c1CN1CCOCC1)O2)C(=O)NS(=O)(=O)C1(C)CC1 (stereo partly drawn) [Example 248, potassium {[(1R,2S)-1-({[(1aR,5S,8S,10R,22aR)-5-tert-butyl-17-(morpholin-4-ylmethyl)-3,6-dioxo-1,1a,3,4,5,6,9,10,18,19,20,21,22,22a-tetradecahydro-8H-7,10-methanocyclopropa[18,19][1,10,3,6]dioxadiazacyclononadecino[11,12-b]quinolin-8-yl]carbonyl}amino)-2-ethenylcyclopropyl]carbonyl}[(1-methylcyclopropyl)sulfonyl]azanide] |  | 40.2 | 0.1 | 0.348 |
| C=C[C@@H]1C[C@]1(NC(=O)[C@@H]1C[C@@H]2CN1C(=O)[C@H](C1CCCCC1)NC(=O)O[C@@H]1C[C@H]1CCCCCc1c(nc3ccccc3c1OCCCN1CC[C@@H](O)C1)O2)C(=O)NS(=O)(=O)C1(C)CC1 [Example 169, (1aR,5S,8S,10R,22aR)-5-cyclohexyl-N-[(1R,2S)-2-ethenyl-1-{[(1-methylcyclopropyl)sulfonyl]carbamoyl}cyclopropyl]-17-{3-[(3R)-3-hydroxypyrrolidin-1-yl]propoxy}-3,6-dioxo-1,1a,3,4,5,6,9,10, 18,19,20,21,22,22a-tetradeca hydro-8H-7,10-methanocyclopropa[18,19][1,10,3,6] dioxadiazacyclononadecino[11,12-b] quinoline-8-carboxamide] | 0.042 | 0.75 |  |  |
| C=C[C@@H]1C[C@]1(NC(=O)[C@@H]1C[C@@H]2CN1C(=O)[C@H](C(C)(C)C)NC(=O)O[C@@H]1CCC[C@H]1CC/C=C/Cc1c(nc3ccccc3c1OC)O2)C(=O)NS(=O)(=O)C1CC1 [Example 6, (3aR,7S,10S,12R,21E,24aS)-7-tert-butyl-N-{(1R,2S)-1-[(cyclopropylsulfonyl)carbamoyl]-2-ethenylcyclopropyl}-19-methoxy-5,8-dioxo-1,2,3,3a,5,6,7,8,11,12,20,23,24,24a-tetradecahydro-10H-9,12-methanocyclopenta[18,19][1,10,3,6] dioxadiazacyclononadecino[11,12-b]quinoline-10-carboxamide] | 0.1 | 1.3 |  |  |
| C=C[C@@H]1C[C@]1(NC(=O)[C@@H]1C[C@@H]2CN1C(=O)[C@H](C(C)(C)C)NC(=O)O[C@@H]1C[C@H]1CCCCCc1c(nc3ccccc3c1OCC1CCN(C)C1)O2)C(=O)NS(=O)(=O)C1(C)CC1 (stereo partly drawn) [Example 141, (1aR,5S,8S,10R,22aR)-5-tert-butyl-N-[(1R,2S)-2-ethenyl-1-{[(1-methylcyclopropyl)sulfonyl]carbamoyl}cyclopropyl]-17-[(1-methylpyrrolidin-3-yl)methoxy]-3,6-dioxo-1,1a,3,4,5,6,9,10,18,19,20,21,22,22a-tetradecahydro-8H-7,10-methanocyclopropa[18,19][1,10,3,6] dioxadiazacyclononadecino [11,12-b]quinoline-8-carboxamide] | 0.066 | 0.33 |  |  |
| CC1(S(=O)(=O)NC(=O)[C@@]23C[C@H]2/C=C\CCCCC[C@@H]2NC(=O)O[C@@H]4C[C@H]4CCC/C=C/c4c(nc5ccccc5c4OCCN4CCCCC4)O[C@@H]4C[C@@H](C(=O)N3)N(C4)C2=O)CC1 [Example 296, (1aR,5S,11Z,12aS,13aR,16S,19R,27E,31aR)—N-[(1-methylcyclopropyl)sulfonyl]-3,15,33-trioxo-26-[2-(piperidin-1-yl)ethoxy]-1,1a,3,4,5,6,7,8,9,10,12a,13,15,16,18,19,29,30,31,31a-icosahydro-5,17:16,19-dimethanodicyclopropa[12,13:28,29][1,20,3,14,17]dioxatriazacyclononacosino[21,22-b]quinoline-13a(14H)-carboxamide] | 0.27 | 6 |  |  |
| C=C[C@@H]1C[C@]1(NC(=O)[C@@H]1C[C@@H]2CN1C(=O)[C@H](C1CCCC1)NC(=O)O[C@@H]1CCC[C@H]1CCC/C=C/Cc1c(nc3ccccc3c1O)O2)C(=O)NS(=O)(=O)C1CC1 [Example 18] | 0.79 | 12 |  |  |
